Key:
estrogen receptor-alpha = test: gene expression of estrogen receptor-alpha in the bladder of castrated rats; format: in vivo, rat
[1] = test system: Nerve Growth Factor (NGF); test: gene expression of Nerve Growth Factor (bladder); format: in vivo, rat
Description: Bladder tonus is largely influenced by nerve cells located in the bladder wall and other vegetative nerve cells. The “Nerve Growth Factor” (NGF) is an indicator for the local activity of the nerve cells.

[2] = test system: estrogen receptor of alpha-subtype; test: gene expression of estrogen receptor alpha-subtype in the prostate of male castrated rat; format: in vivo
estrogen receptor-beta = test: gene expression of estrogen receptor-beta in the prostate of male castrated rat; format: in vivo
IGF1 = IGF1 gene expression in the prostate of castrated male rats; format: in vivo, rat
Description: (§1) The prostate regression induced by castration could be antagonized by testosterone in experiments with rats.

prostate = prostate regression / testosterone-induced prostate growth in castrated rats; format: in vivo, rat
Description: as §1

| SMILES | gene expression of the estrogen receptor-alpha (estrogen receptor-alpha) | gene expression of Nerve Growth Factor (NGF) [1] | gene expression of the estrogen receptor of alpha-subtype [2] | gene expression of the estrogen receptor-beta (estrogen receptor-beta) | gene expression of the growth factor IGF1 (IGF1) | prostate regression induced by castration (prostate) |
| --- | --- | --- | --- | --- | --- | --- |
| C[C@]12CC[C@@H]3c4ccc(O)cc4CC[C@H]3[C@@H]1CC[C@@H]2O [estradiol, 17β-estradiol] | regulate down | observed under neither estradiol nor testosterone | significantly inhibit | without having an effect | – | – |
| C[C@]12CC[C@H]3[C@@H](CCC4=CC(=O)CC[C@@]43C)[C@@H]1CC[C@@H]2O [testosterone] | – | observed under neither estradiol nor testosterone | – | – | regulated up | antagonized |

Reference: patent US20040176310A1, “Use of extracts and preparations from iris plants and tectorigenin as medicaments” (priority 2001, published 2004)
